Where a SMILES comes first, the peptide text is derived from it. [ ]: non-standard residue; d: D form. The star is where a group is joined. NHCH2CH2OH = OCCN*; For = O=C*
Tests used:
[1] = cell viability/%
Method in brief: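 First, library peptide stocks are diluted 250-fold in RPMI1640 with 10% heat-inactivated FBS. Next, they are mixed with P388 cells to give 1 × 10^4 cells/mL and incubated 92 h at 37 °C, 5% CO2. Finally, viability (%) is scored by WST-1 absorbance at 415 nm.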

[2] = H+/Na+ transport assay of bead-derived peptides (one-point); type: biochemical; parameters: key: relative activity; mean of two control wells = 1.00; settings: bead-derived peptide solution, EYPC/EYPG LUVs;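 note: relative to parent gramicidin A activity set to 1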
Method in brief: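 Miniaturized 96-well format. LUVs with entrapped pyranine (1.0 mM) were exposed to peptide for 30 min at RT. Intensities were expressed relative to full lysis by Triton X-100 and no treatment, with control-well mean = 1.00.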

[3] = test system: Streptococcus pyogenes SSI-9; test: Antibacterial activity assay of bead-derived peptides (three concentrations); type: cell-based; parameters: key: +++: inhibition by the 640-fold diluted peptide solution; ++: inhibition by the 160-fold diluted solution; +: inhibition by the 40-fold diluted solution; -: no inhibition; settings: S. pyogenes, bead-derived peptide solution, three concentrations
Method in brief: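 Three stock dilutions per peptide (none, 4-fold, 16-fold in DMSO) are screened in 96-well format. The medium is blood-supplemented cation-adjusted MHB, inoculated with 2 × 10^5 CFU S. pyogenes SSI-9. Growth is read as cell precipitation at 18 h, 37 °C.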

With `CC(C)C[C@@H](NC(=O)[C@H](C)NC(=O)[C@H](NC(=O)[C@H](C)NC(=O)CNC(=O)[C@@H](NC=O)C(C)C)C(C)C)C(=O)N[C@H](C(=O)N[C@@H](C(=O)N[C@@H](Cc1c[nH]c2ccccc12)C(=O)N[C@H](CC(C)C)C(=O)N[C@@H](Cc1c[nH]c2ccccc12)C(=O)N[C@@H](C(=O)N[C@@H](Cc1c[nH]c2ccccc12)C(=O)N[C@H](CC(C)C)C(=O)N[C@@H](Cc1c[nH]c2ccccc12)C(=O)NCCO)[C@H](C)O)[C@H](C)O)C(C)C` [compound 4195] (For-VGA[dV]A[dL]V[dT]W[dL]W[dT]W[dL]W-NHCH2CH2OH) the viability [1] was 90.6%, the “H+/Na+ transport activity normalized against the value of 1 (1.00)” value (“H+/Na+ transport activity normalized” below) [2] was 1.19 and the antibacterial activity [3] was “-”.

For `CNC(=O)C[C@@H](NC(=O)[C@H](Cc1c[nH]c2ccccc12)NC(=O)[C@@H](CC(C)C)NC(=O)[C@H](Cc1c[nH]c2ccccc12)NC(=O)[C@@H](CC(C)C)NC(=O)[C@@H](NC(=O)[C@H](NC(=O)[C@H](C)NC(=O)[C@H](NC(=O)[C@H](C)NC(=O)CNC(=O)[C@@H](NC=O)C(C)C)C(C)C)C(C)C)C(C)C)C(=O)N[C@@H](Cc1c[nH]c2ccccc12)C(=O)N[C@H](CC(C)C)C(=O)N[C@@H](Cc1c[nH]c2ccccc12)C(=O)NCCO` [compound 4203] (For-VGA[dV]A[dV]V[dL]W[dL]W[dD](NHMe)W[dL]W-NHCH2CH2OH), the viability [1] was 100%, the “H+/Na+ transport activity normalized” value [2] was 1.16 and the antibacterial activity [3] was “-”.

For `CC(C)[C@H](NC=O)C(=O)NCC(=O)N[C@@H](C)C(=O)N[C@@H](C(=O)N[C@@H](C)C(=O)N[C@@H](C(=O)N[C@H](C(=O)N[C@@H](C(=O)N[C@@H](Cc1c[nH]c2ccccc12)C(=O)N[C@@H](C(=O)N[C@@H](Cc1c[nH]c2ccccc12)C(=O)N[C@@H](C(=O)N[C@@H](Cc1c[nH]c2ccccc12)C(=O)N[C@@H](C(=O)N[C@@H](Cc1c[nH]c2ccccc12)C(=O)NCCO)C(C)C)C(C)C)C(C)C)C(C)C)C(C)C)C(C)C)C(C)C` [compound 4223] (For-VGA[dV]A[dV]V[dV]W[dV]W[dV]W[dV]W-NHCH2CH2OH), the viability [1] was 95.6%, the “H+/Na+ transport activity normalized” value [2] was 1.09 and the antibacterial activity [3] was “+”.

In the case of `CC(C)C[C@@H](NC(=O)[C@H](C)NC(=O)[C@H](NC(=O)[C@H](C)NC(=O)CNC(=O)[C@@H](NC=O)C(C)C)C(C)C)C(=O)N[C@H](C(=O)N[C@@H](C(=O)N[C@@H](Cc1c[nH]c2ccccc12)C(=O)N[C@@H](C(=O)N[C@@H](Cc1c[nH]c2ccccc12)C(=O)N[C@@H](C(=O)N[C@@H](Cc1c[nH]c2ccccc12)C(=O)N[C@@H](C(=O)N[C@@H](Cc1c[nH]c2ccccc12)C(=O)NCCO)C(C)C)[C@H](C)O)C(C)C)C(C)C)C(C)C` [compound 4258] (For-VGA[dV]A[dL]V[dV]W[dV]W[dT]W[dV]W-NHCH2CH2OH), the viability [1] is reported as 85.9%, the “H+/Na+ transport activity normalized” value [2] is reported as 1.00 and the antibacterial activity [3] is reported as “-”.

For `CC(C)C[C@@H](NC(=O)[C@H](C)NC(=O)[C@H](NC(=O)[C@H](C)NC(=O)CNC(=O)[C@@H](NC=O)C(C)C)C(C)C)C(=O)N[C@H](C(=O)N[C@H](CC(C)C)C(=O)N[C@@H](Cc1c[nH]c2ccccc12)C(=O)N[C@H](CC(C)C)C(=O)N[C@@H](Cc1c[nH]c2ccccc12)C(=O)N[C@@H](C(=O)N[C@@H](Cc1c[nH]c2ccccc12)C(=O)N[C@@H](C(=O)N[C@@H](Cc1c[nH]c2ccccc12)C(=O)NCCO)[C@H](C)O)[C@H](C)O)C(C)C` [compound 4322] (For-VGA[dV]A[dL]V[dL]W[dL]W[dT]W[dT]W-NHCH2CH2OH), the viability [1] was 100%, the “H+/Na+ transport activity normalized” value [2] was 1.05 and the antibacterial activity [3] was “-”.

With `CC(C)C[C@@H](NC(=O)[C@H](C)NC(=O)CNC(=O)[C@@H](NC=O)C(C)C)C(=O)N[C@@H](C)C(=O)N[C@@H](C(=O)N[C@H](C(=O)N[C@H](CC(C)C)C(=O)N[C@@H](Cc1c[nH]c2ccccc12)C(=O)N[C@H](CC(C)C)C(=O)N[C@@H](Cc1c[nH]c2ccccc12)C(=O)N[C@@H](C(=O)N[C@@H](Cc1c[nH]c2ccccc12)C(=O)N[C@@H](C(=O)N[C@@H](Cc1c[nH]c2ccccc12)C(=O)NCCO)[C@H](C)O)[C@H](C)O)C(C)C)C(C)C` [compound 4328] (For-VGA[dL]A[dV]V[dL]W[dL]W[dT]W[dT]W-NHCH2CH2OH) the viability [1] was 100%, the “H+/Na+ transport activity normalized” value [2] was 1.13 and the antibacterial activity [3] was “+”.

With `CC(C)C[C@@H](NC(=O)[C@H](Cc1c[nH]c2ccccc12)NC(=O)[C@H](NC(=O)[C@@H](NC(=O)[C@H](NC(=O)[C@H](C)NC(=O)[C@H](NC(=O)[C@H](C)NC(=O)CNC(=O)[C@@H](NC=O)C(C)C)[C@H](C)O)C(C)C)C(C)C)C(C)C)C(=O)N[C@@H](Cc1c[nH]c2ccccc12)C(=O)N[C@H](CC(C)C)C(=O)N[C@@H](Cc1c[nH]c2ccccc12)C(=O)N[C@@H](C(=O)N[C@@H](Cc1c[nH]c2ccccc12)C(=O)NCCO)C(C)C` [compound 4452] (For-VGA[dT]A[dV]V[dV]W[dL]W[dL]W[dV]W-NHCH2CH2OH) the viability [1] was 100%, the “H+/Na+ transport activity normalized” value [2] was 1.30 and the antibacterial activity [3] was “-”.

For `CC(C)C[C@@H](NC(=O)[C@H](Cc1c[nH]c2ccccc12)NC(=O)[C@H](NC(=O)[C@@H](NC(=O)[C@H](NC(=O)[C@H](C)NC(=O)[C@H](NC(=O)[C@H](C)NC(=O)CNC(=O)[C@@H](NC=O)C(C)C)C(C)C)C(C)C)C(C)C)C(C)C)C(=O)N[C@@H](Cc1c[nH]c2ccccc12)C(=O)N[C@H](CC(C)C)C(=O)N[C@@H](Cc1c[nH]c2ccccc12)C(=O)N[C@@H](C(=O)N[C@@H](Cc1c[nH]c2ccccc12)C(=O)NCCO)[C@H](C)O` [compound 4603] (For-VGA[dV]A[dV]V[dV]W[dL]W[dL]W[dT]W-NHCH2CH2OH), the viability [1] was 100%, the “H+/Na+ transport activity normalized” value [2] was 1.12 and the antibacterial activity [3] was “++”.

For `CC(C)C[C@@H](NC(=O)[C@H](C)NC(=O)[C@H](NC(=O)[C@H](C)NC(=O)CNC(=O)[C@@H](NC=O)C(C)C)[C@H](C)O)C(=O)N[C@H](C(=O)N[C@@H](C(=O)N[C@@H](Cc1c[nH]c2ccccc12)C(=O)N[C@H](CC(C)C)C(=O)N[C@@H](Cc1c[nH]c2ccccc12)C(=O)N[C@H](CC(C)C)C(=O)N[C@@H](Cc1c[nH]c2ccccc12)C(=O)N[C@@H](C(=O)N[C@@H](Cc1c[nH]c2ccccc12)C(=O)NCCO)C(C)C)C(C)C)C(C)C` [compound 4605] (For-VGA[dT]A[dL]V[dV]W[dL]W[dL]W[dV]W-NHCH2CH2OH), the viability [1] was 100%, the “H+/Na+ transport activity normalized” value [2] was 1.35 and the antibacterial activity [3] was “-”.

In the case of `CC(C)C[C@@H](NC(=O)[C@H](C)NC(=O)[C@H](NC(=O)[C@H](C)NC(=O)CNC(=O)[C@@H](NC=O)C(C)C)[C@H](C)O)C(=O)N[C@H](C(=O)N[C@H](CC(C)C)C(=O)N[C@@H](Cc1c[nH]c2ccccc12)C(=O)N[C@@H](C(=O)N[C@@H](Cc1c[nH]c2ccccc12)C(=O)N[C@H](CC(C)C)C(=O)N[C@@H](Cc1c[nH]c2ccccc12)C(=O)N[C@H](CC(C)C)C(=O)N[C@@H](Cc1c[nH]c2ccccc12)C(=O)NCCO)C(C)C)C(C)C` [compound 4687] (For-VGA[dT]A[dL]V[dL]W[dV]W[dL]W[dL]W-NHCH2CH2OH), the viability [1] is reported as 94.4%, the “H+/Na+ transport activity normalized” value [2] is reported as 1.04 and the antibacterial activity [3] is reported as “-”.

In the case of `CC(C)C[C@@H](NC(=O)[C@H](C)NC(=O)CNC(=O)[C@@H](NC=O)C(C)C)C(=O)N[C@@H](C)C(=O)N[C@H](CC(C)C)C(=O)N[C@H](C(=O)N[C@@H](C(=O)N[C@@H](Cc1c[nH]c2ccccc12)C(=O)N[C@@H](C(=O)N[C@@H](Cc1c[nH]c2ccccc12)C(=O)N[C@@H](C(=O)N[C@@H](Cc1c[nH]c2ccccc12)C(=O)N[C@H](CC(C)C)C(=O)N[C@@H](Cc1c[nH]c2ccccc12)C(=O)NCCO)C(C)C)C(C)C)[C@H](C)O)C(C)C` [compound 4784] (For-VGA[dL]A[dL]V[dT]W[dV]W[dV]W[dL]W-NHCH2CH2OH), the viability [1] is reported as 100%, the “H+/Na+ transport activity normalized” value [2] is reported as 1.19 and the antibacterial activity [3] is reported as “-”.

In the case of `CC(C)C[C@@H](NC(=O)[C@H](C)NC(=O)CNC(=O)[C@@H](NC=O)C(C)C)C(=O)N[C@@H](C)C(=O)N[C@@H](C(=O)N[C@H](C(=O)N[C@H](CC(C)C)C(=O)N[C@@H](Cc1c[nH]c2ccccc12)C(=O)N[C@@H](C(=O)N[C@@H](Cc1c[nH]c2ccccc12)C(=O)N[C@H](CC(C)C)C(=O)N[C@@H](Cc1c[nH]c2ccccc12)C(=O)N[C@@H](C(=O)N[C@@H](Cc1c[nH]c2ccccc12)C(=O)NCCO)[C@H](C)O)[C@H](C)O)C(C)C)C(C)C` [compound 4868] (For-VGA[dL]A[dV]V[dL]W[dT]W[dL]W[dT]W-NHCH2CH2OH), the viability [1] is reported as 100%, the “H+/Na+ transport activity normalized” value [2] is reported as 1.06 and the antibacterial activity [3] is reported as “-”.

In the case of `CNC(=O)C[C@@H](NC(=O)[C@H](Cc1c[nH]c2ccccc12)NC(=O)[C@@H](CC(C)C)NC(=O)[C@H](Cc1c[nH]c2ccccc12)NC(=O)[C@H](NC(=O)[C@H](Cc1c[nH]c2ccccc12)NC(=O)[C@H](NC(=O)[C@@H](NC(=O)[C@H](NC(=O)[C@H](C)NC(=O)[C@@H](CC(C)C)NC(=O)[C@H](C)NC(=O)CNC(=O)[C@@H](NC=O)C(C)C)C(C)C)C(C)C)C(C)C)C(C)C)C(=O)N[C@@H](Cc1c[nH]c2ccccc12)C(=O)NCCO` [compound 4898] (For-VGA[dL]A[dV]V[dV]W[dV]W[dL]W[dD](NHMe)W-NHCH2CH2OH), the viability [1] is reported as 100%, the “H+/Na+ transport activity normalized” value [2] is reported as 1.21 and the antibacterial activity [3] is reported as “-”.
